Measurements as given in patent US8703767B2, “Substituted N-(3-(pyrimidin-4-yl)phenyl)acrylamide analogs as tyrosine receptor kinase BTK inhibitors” (University of Utah Research Foundation, priority 2011, dated 2014).
Each block holds one compound with its values, some of them ahead of it.

What was measured:
[1] = molecular target: recombinant full-length human BTK kinase (Homo sapiens (Human), UniProt Q06187); test: BTK kinase assay: ADP generation assay; assay type: biochemical; details: 60 nM BTK, 1.6 μM ATP, 20 μM MBP substrate, 60 min
Method: Test compounds were diluted to desired concentrations in kinase reaction buffer and briefly incubated with recombinant full-length human BTK kinase with a (His)6 tag (81.3 kDa; Invitrogen Corporation, Carlsbad, Calif.). The assay as described is based on volumes used in a standard 384 well format using solid, white-wall plates. The reaction was subsequently initiated by the addition of ATP and myelin basic protein (MBP) substrate (Millipore Corporation, Waltham, Mass.). Composition of the assay reaction mixture ([…]) was: 5% v/v DMSO, 60 nM BTK, 1.6 μM ATP, and 20 μM MBP substrate. After incubation at room temperature for 60 min, […] (Promega Corporation, Madison, Wis.) was added to each well and incubated for an additional 40 minutes. The reagent stopped the kinase reaction and depleted the unconsumed ATP. Kinase Detection reagent ([…]; Promega Corporation) was then added to each well. The Kinase Detection reagent comprises reagents to convert ADP to ATP and provide luciferase and luciferin to detect ATP. Luminescence was measured on an EnVision microplate reader (PerkinElmer). The amount of luminescence from each reaction is directly correlated with BTK kinase activity. Percent inhibition and IC50 values were calculated by comparing enzyme activity in drug-treated wells to the appropriate controls.
(§1) IC50 values are determined using GraphPad Prism 5 software. The data were entered as an X-Y plot into the software as percent inhibition for each concentration of the drug. The concentration values of the drug were log transformed and the nonlinear regression was carried out using the “sigmoidal dose-response (variable slope)” option within the GraphPad software to model the data and calculate IC50 values. The IC50 values reported are the concentration of drug at which 50% inhibition was reached.

BTK kinase = BTK kinase (Homo sapiens (Human), UniProt Q06187); test: BTK kinase assay: time resolved-FRET (HTRF) assay; assay type: biochemical; details: 10 nM BTK, 60 μM ATP, 1 μM substrate, 60 min
Method: The secondary assay was a time resolved-FRET kinase assay. Test compound are diluted to desired concentrations in kinase reaction buffer and briefly incubated with BTK kinase (as described above; Invitrogen). The reaction is initiated by the addition of ATP and enzyme substrate, HTRF® KinEASE™-TK Substrate-biotin (Cisbio US, Bedford, Mass.). The composition of the reaction (10 μl) was: 1% v/v DMSO, 10 nM BTK, 60 μM ATP, and 1 μM substrate. After incubation at room temperature for 60 min, the enzyme reaction is stopped by EDTA-containing buffer, which also contains europium-labeled (Eu^3+-Cryptate) anti-phosphotyrosine antibody (Cisbio) and Streptavidin-XL665 (Cisbio). The europium-labeled antibody generates a time-resolved FRET signal with the Stepavidin-XL665, which binds to the biotinylated TK substrate through the streptavidin conjugate when the substrate is phosphorylated. After one hour incubation at room temperature, fluorescence was measured with excitation of 320 nm and dual emission of 615 and 665 nm on an EnVision microplate reader.
as §1

Ramos RA-1 = test: Cell viability assay (ATP-lite), Ramos RA-1; assay type: cell-based; details: Homo sapiens, 96 hours
Method: (§2) All cell lines were cultured in RPMI-1640 media supplemented with 10% fetal bovine serum (“FBS”) and 1% penicillin/streptomycin (100 IU/mL penicillin and 100 μg/mL streptomycin) at 37° C. and 5% CO2. ATCC is the American Type Culture Collection (Manassas, Va.), and DSMZ is the Deutsche Sammlung von Mikroorganismen and Zellkulturen GmbH (German Collection of Microorganims and Cell Cultures; Braunschweig, Germany). The cell lines typically used in these studies are indicated below in Table II.
(§3) The cells were grown as described above, and for the assay cells were freshly harvested and then were plated in […] of appropriate media (as described above) at a density of 1000 cells per well in standard solid white-walled 384-well plates. Cells were allowed to attach by incubation overnight at 37° C. and 5% CO2. Test compounds were diluted to 10× concentrations in the appropriate media for the cell used (containing 3% DMSO) and […] of these dilutions were appropriate wells containing the cells. Test compounds were typically tested in triplicate (i.e. a given concentration of compound was assayed in triplicate wells). The plates containing the drug-treated cells and appropriate controls were incubated for 96 hours. At the end of the incubation, […] of ATP-lite (PerkinElmer, Inc., Waltham, Mass.) reagent were added to each well and luminescence signal was measured on an EnVision microplate reader.
as §1
The ability of compounds to inhibit the viability of cultured cells was determined using the cell viability assay described above. Activity data for representative compounds is shown below in Table III below for the compounds tested using the indicated cell lines (Ramos RA-1, GRANTA-519, and BxPC-3). IC50 values were determined as described above. If an IC50 is indicated as “n.d.”, it was not determined in the indicated cell line.

GRANTA-519 = test: Cell viability assay (ATP-lite), GRANTA-519; assay type: cell-based; details: Homo sapiens, 96 hours
Method: as §2
(§4) The cells were grown as described above, and for the assay cells were freshly harvested and then were plated in […] of appropriate media (as described above) at a density of 1000 cells per well in standard solid white-walled 384-well plates. Cells were allowed to attach by incubation overnight at 37° C. and 5% CO2. […] At the end of the incubation, […] of ATP-lite (PerkinElmer, Inc., Waltham, Mass.) reagent were added to each well and luminescence signal was measured on an EnVision microplate reader.
(§5) IC50 values are determined using GraphPad Prism 5 software. […]
(§6) The ability of compounds to inhibit the viability of cultured cells was determined using the cell viability assay described above. […] IC50 values were determined as described above. If an IC50 is indicated as “n.d.”, it was not determined in the indicated cell line.

wild-type EGFR (ErbB1) = wild-type EGFR (ErbB1) (Homo sapiens (Human), UniProt P00533); test: LanthaScreen Eu Kinase Binding Assay, wild-type EGFR; details: tracer displacement
Method: (§7) Based on the results obtained in the foregoing experiment, representative compounds (N-(3-(5-chloro-2-((4-morpholinophenyl)amino)pyrimidin-4-yl)phenyl)acrylamide and N-(3-(6-((4-morpholinophenyl)amino)-1H-pyrazolo[3,4-d]pyrimidin-4-yl)phenyl)acrylamide) were assayed against wild-type and a mutant form (T790M) of EGFR. The compound activity against these kinases was determined using LanthaScreen™ Eu Kinase Bindng Assay (Invitrogen division of Life Technologies, Inc., Grand Island, N.Y.). The assay measures the activity of a compound to bind and displace a proprietary, Alexa Fluor® 647-labeled, ATP-competitive kinase inhibitor scaffold (kinase tracer) to EGFR.

[2] = molecular target: mutant form of EGFR (T790M) (Homo sapiens (Human), UniProt P00533, T790M); test: LanthaScreen Eu Kinase Binding Assay, EGFR T790M; details: tracer displacement
Method: as §7

BxPC-3 = test: Cell viability assay (ATP-lite), BxPC-3; assay type: cell-based; details: Homo sapiens, 96 hours
Method: as §2, §4, §5, §6

OPM2 cells = test: Cell viability assay in OPM2 cells with endogenous levels of BTK; assay type: cell-based; details: Homo sapiens, OPM-2, absence of overexpressed BTK
Method: as §3
(§8) The compounds were assessed in a cell-viability assay in OPM2 cells that either expressed endogenous levels of BTK or overexpressed BTK from an expression construct. […] Cell viability or proliferation was determined using the ATPLite Luminescence Assay (PerkinElmer, Inc., Waltham, Mass.); a decrease in luminescence activity correlates with a decrease in cell viability or proliferation.

[3] = system: OPM2 cells overexpressing BTK; test: Cell viability assay in OPM2 cells overexpressing BTK; assay type: cell-based; details: Homo sapiens, OPM-2, presence of overexpressed BTK
Method: as §3, §8

[4] = system: Tec family of kinase, as well as EGFR and ErbB4; test: Kinase profiling against a panel of 40 protein kinases; assay type: biochemical; details: 200 nM of test compound, ATP at Km apparent
Method: The specificity of kinase inhibition was assessed with a representative compound, N-(3-(5-chloro-2-((4-morpholinophenyl)amino)pyrimidin-4-yl)phenyl)acrylamide, by determining the activity of this test compound against a panel of protein kinases. Kinase profiling was performed against a focus panel of kinases relevant to BTK and the Tec family of protein kinases. […] The results from this screen confirmed good activity against the Tec family of kinase, as well as EGFR and ErbB4. These later two kinases are known to have a cysteine residue in a position suitable for reaction with the Michaels acceptor of the disclosed compounds.

[5] = Pharmacokinetic and bone marrow distribution study; assay type: in vivo; details: CD1 mice, 5 mg/kg iv
Method: To determine the ability of a disclosed compound, N-(3-(5-chloro-2-((4-morpholinophenyl)amino)pyrimidin-4-yl)phenyl)acrylamide, to partition to the bone, a pharmacokinetic study in mice was carried out and coupled with a bone marrow distribution study (see FIG. 18). Briefly, CD1 mice were dosed intravenously (“iv”) with 5 mg/kg of the test compound and three animals per time point (5 min to 8 hrs) were sacrificed. Blood (plasma) and bone marrow tissue (femur) were collected from each animal and analyzed by LC/MS for standard PK parameters. […] The baseline distribution to the bone marrow of the compound was also determined.

Chain of BTK kinase (Q06187 whole entry): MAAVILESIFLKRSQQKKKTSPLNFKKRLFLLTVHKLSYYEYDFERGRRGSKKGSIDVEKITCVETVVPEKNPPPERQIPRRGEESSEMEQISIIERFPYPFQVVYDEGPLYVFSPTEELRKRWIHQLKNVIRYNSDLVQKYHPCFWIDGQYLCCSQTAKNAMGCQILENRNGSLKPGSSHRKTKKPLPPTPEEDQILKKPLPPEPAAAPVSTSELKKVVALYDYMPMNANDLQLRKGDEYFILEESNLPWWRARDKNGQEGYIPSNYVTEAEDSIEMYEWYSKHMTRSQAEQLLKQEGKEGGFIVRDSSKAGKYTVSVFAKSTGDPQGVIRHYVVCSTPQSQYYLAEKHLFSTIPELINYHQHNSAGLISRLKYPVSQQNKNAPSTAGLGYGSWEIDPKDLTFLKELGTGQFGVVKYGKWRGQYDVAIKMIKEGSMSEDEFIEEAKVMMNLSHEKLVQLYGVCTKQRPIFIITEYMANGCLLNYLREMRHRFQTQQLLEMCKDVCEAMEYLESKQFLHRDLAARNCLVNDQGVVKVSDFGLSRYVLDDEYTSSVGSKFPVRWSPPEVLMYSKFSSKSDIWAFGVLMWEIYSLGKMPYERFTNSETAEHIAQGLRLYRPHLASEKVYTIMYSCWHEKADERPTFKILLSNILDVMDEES
Chain of recombinant full-length human BTK kinase (Q06187 whole entry): as above
Chain of wild-type EGFR (ErbB1) (P00533 25-1210): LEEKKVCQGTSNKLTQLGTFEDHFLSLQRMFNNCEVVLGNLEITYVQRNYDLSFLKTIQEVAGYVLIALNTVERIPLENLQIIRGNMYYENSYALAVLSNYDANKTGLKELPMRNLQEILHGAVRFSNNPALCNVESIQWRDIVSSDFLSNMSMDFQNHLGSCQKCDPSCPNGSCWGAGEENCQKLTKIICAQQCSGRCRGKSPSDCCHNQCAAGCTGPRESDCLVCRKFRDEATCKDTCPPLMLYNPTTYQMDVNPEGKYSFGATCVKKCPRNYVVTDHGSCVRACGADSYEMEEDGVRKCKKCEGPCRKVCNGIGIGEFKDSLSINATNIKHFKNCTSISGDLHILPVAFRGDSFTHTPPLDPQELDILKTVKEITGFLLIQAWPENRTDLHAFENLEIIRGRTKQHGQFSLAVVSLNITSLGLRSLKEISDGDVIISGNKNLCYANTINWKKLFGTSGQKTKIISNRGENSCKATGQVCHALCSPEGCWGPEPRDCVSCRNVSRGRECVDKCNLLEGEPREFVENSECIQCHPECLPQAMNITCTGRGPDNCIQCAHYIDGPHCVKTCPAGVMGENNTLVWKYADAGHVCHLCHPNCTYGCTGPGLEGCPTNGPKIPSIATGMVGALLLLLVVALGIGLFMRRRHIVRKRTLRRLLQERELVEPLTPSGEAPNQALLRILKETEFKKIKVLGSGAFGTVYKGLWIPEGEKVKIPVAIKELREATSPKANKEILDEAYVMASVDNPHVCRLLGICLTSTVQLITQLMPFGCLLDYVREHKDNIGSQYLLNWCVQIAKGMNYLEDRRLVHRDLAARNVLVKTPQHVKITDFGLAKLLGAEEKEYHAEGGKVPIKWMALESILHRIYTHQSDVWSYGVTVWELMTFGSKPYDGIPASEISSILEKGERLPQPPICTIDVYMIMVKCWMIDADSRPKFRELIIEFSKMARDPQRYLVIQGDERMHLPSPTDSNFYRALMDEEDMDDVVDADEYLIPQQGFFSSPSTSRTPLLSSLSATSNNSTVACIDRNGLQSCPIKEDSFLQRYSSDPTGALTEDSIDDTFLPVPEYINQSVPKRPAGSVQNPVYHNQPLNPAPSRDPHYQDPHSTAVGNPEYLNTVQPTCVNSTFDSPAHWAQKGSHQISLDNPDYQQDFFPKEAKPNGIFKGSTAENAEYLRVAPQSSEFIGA
Chain of mutant form of EGFR (T790M) (P00533 25-1210 T790M): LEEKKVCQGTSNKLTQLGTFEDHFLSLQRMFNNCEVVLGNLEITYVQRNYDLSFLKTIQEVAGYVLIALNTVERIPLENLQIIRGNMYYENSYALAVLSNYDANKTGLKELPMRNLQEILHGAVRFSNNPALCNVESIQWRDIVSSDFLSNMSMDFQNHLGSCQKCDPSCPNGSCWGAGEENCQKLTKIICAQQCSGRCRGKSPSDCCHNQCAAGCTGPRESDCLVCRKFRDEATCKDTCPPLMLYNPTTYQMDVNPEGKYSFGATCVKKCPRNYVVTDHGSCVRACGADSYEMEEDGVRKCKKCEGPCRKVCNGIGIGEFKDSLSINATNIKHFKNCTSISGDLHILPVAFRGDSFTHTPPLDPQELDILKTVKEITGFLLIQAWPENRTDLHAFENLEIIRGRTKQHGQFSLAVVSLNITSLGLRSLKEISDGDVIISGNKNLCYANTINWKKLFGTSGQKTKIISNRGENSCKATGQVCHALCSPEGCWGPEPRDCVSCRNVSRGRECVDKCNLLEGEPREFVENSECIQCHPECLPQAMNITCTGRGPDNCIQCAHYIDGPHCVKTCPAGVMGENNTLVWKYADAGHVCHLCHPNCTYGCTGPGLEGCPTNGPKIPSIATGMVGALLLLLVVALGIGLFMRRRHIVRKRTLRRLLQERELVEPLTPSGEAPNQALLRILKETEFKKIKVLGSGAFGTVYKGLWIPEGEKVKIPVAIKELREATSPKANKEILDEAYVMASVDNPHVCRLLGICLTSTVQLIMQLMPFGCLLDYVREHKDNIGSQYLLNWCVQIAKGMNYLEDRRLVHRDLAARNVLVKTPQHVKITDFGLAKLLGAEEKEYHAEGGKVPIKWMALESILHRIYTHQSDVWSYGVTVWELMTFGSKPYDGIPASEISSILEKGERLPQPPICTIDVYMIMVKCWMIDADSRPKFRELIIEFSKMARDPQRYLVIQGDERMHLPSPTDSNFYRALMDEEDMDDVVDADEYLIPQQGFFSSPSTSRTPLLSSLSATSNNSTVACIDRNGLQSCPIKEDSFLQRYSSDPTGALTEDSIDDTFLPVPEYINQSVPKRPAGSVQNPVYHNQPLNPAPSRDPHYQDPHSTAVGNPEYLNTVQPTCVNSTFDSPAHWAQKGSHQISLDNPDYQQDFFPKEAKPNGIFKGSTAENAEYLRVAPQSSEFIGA

- IC50 [1]: 0.829 µM
SMILES: C=CC(=O)Nc1cccc(-c2nc(Cl)ncc2Nc2cccc(F)c2)c1 [compound 12]

- IC50 [1]: 0.263 µM
- IC50 (BTK kinase): 3.77 µM
- IC50 (Ramos RA-1): > 30 µM
SMILES: C=CC(=O)Nc1cccc(-c2nc(Cl)nc3[nH]ncc23)c1 [compound 4]
- IC50 (GRANTA-519): > 30 µM

- IC50 (wild-type EGFR (ErbB1)): 105 nM
- IC50 [2]: 2.67 nM
SMILES: C=CC(=O)Nc1cccc(-c2nc(Nc3ccc(N4CCOCC4)cc3)nc3[nH]ncc23)c1 [N-(3-(6-((4-morpholinophenyl)amino)-1H-pyrazolo[3,4-d]pyrimidin-4-yl)phenyl)acrylamide]

SMILES: C=CC(=O)Nc1cccc(-c2nc(Nc3ccc(N4CCOCC4)cc3)ncc2Cl)c1 [compound 8]
- IC50 [1]: 0.033 µM
- IC50 (BTK kinase): 0.047 µM
- IC50 (Ramos RA-1): 20.9 µM
- IC50 (BxPC-3): 22.2 µM

- IC50 [1]: 0.23 µM
- IC50 (BTK kinase): 0.126 µM
SMILES: C=CC(=O)Nc1cccc(-c2nc(Nc3ccc(N4CCOCC4)c(F)c3)nc3[nH]ncc23)c1 [compound 3]

- IC50 [1]: 0.079 µM
- IC50 (BTK kinase): 0.045 µM
- IC50 (Ramos RA-1): > 30 µM
- IC50 (BxPC-3): 7 µM
SMILES: C=CC(=O)Nc1cccc(-c2nc(Nc3ccc(N4CCOCC4)cc3)nc3[nH]ncc23)c1 [compound 1]

- IC50 [1]: > 100 µM
SMILES: C=CC(=O)Nc1cccc(-c2nc(Nc3ccc(N4CCOCC4)cc3)ncc2Nc2ccccc2)c1 [compound 6]

- IC50 [1]: 14.4 µM
SMILES: C=CC(=O)Nc1cccc(-c2nc(Cl)ncc2Cl)c1 [compound 11]

- IC50 [1]: 0.518 µM
- IC50 (BTK kinase): 0.287 µM
SMILES: C=CC(=O)Nc1cccc(-c2nc(Nc3ccc(N4CCOCC4)c(F)c3)ncc2Cl)c1 [compound 7]

- IC50 [1]: 1.81 µM
SMILES: C=CC(=O)Nc1cccc(-c2nc(Cl)ncc2Nc2ccccc2)c1 [compound 5]

- IC50 [1]: 1.27 µM
SMILES: C=CC(=O)Nc1cccc(-c2nc(Nc3ccc(N4CCN(C)CC4)cc3)ncc2Cl)c1 [compound 9]

- IC50 (Ramos RA-1): 18.8 µM
SMILES: C=CC(=O)Nc1cccc(-c2nc(Nc3ccc(N4CCN(C)CC4)cc3)nc3[nH]ncc23)c1 [compound 2]
- IC50 (GRANTA-519): 13.7 µM

- IC50 [1]: 4.7 µM
SMILES: C=CC(=O)Nc1cccc(-c2nc(Cl)ncc2Br)c1 [compound 10]

SMILES: C=CC(=O)Nc1cccc(-c2nc(Nc3ccc(N4CCOCC4)cc3)ncc2Cl)c1 [N-(3-(5-chloro-2-((4-morpholinophenyl)amino)pyrimidin-4-yl)phenyl)acrylamide]
- IC50 (OPM2 cells): ~5.05 µM
- IC50 [3]: ~586 nM
- percent inhibition in kinase profiling [4]: good activity
- IC50 (wild-type EGFR (ErbB1)): 253 nM
- dwell time, bone marrow compared to plasma [5]: higher in the bone marrow compared to plasma
- plasma concentrations [5]: high plasma concentrations
- time after which compound cleared in the elimination phase [5]: > 10 min
- fold lower concentration in bone marrow than in plasma ([5]; mouse, bone marrow (femur) versus plasma, read-out: concentration in bone marrow compartment compared to plasma levels (fold less)): ~50
- half-life ([5]; mouse, plasma): ~45 min
